Test results reported in article PMC2279149, “Mouse N-acetyltransferase type 2, the homologue of human N-acetyltransferase type 1” (Biochemical Pharmacology, 2008).
Where two headings read alike, the source gives them in different places.

Columns and labels:
mouse Nat2 [1] = molecular target: T1, mouse Nat2 (Mus musculus, UniProt P50295); assay: Inhibition of mouse Nat2 acetylation of PABA (colorimetric DMAB assay); assay type: biochemical
T1 construct: The mouse Nat2 open-reading frame [22] was sub-cloned into pET28b(+); hexa-histidine tag (His-tag, from pET28b(+)) (N, cleaved yes); made in house; host or cells: Escherichia coli Rosetta(DE3)pLysS
T1 sequence (P50295 1-290): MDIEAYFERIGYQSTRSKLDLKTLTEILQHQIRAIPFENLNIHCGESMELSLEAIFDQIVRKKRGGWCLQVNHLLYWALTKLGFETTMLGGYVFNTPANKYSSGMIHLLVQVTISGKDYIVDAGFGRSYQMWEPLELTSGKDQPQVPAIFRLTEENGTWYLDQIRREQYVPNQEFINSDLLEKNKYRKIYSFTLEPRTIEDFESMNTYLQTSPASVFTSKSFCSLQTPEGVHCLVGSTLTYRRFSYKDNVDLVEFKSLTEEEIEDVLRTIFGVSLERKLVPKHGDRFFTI
Procedure: The rates of arylamine acetylation by NATs were determined colorimetrically as previously described, but with minor modifications. Each assay contained the enzyme, arylamine substrate (see each figure legends for concentrations) and AcCoA (400 μM) in a total volume of 100 μL in assay buffer (20 mM Tris–HCl (pH 8.0), 1 mM DTT). Initially, the enzyme and substrate mixtures were pre-incubated at 25 °C for 5 min and AcCoA was added to start the reaction. The reaction was quenched using 20% (w/v) trichloroacetic acid (TCA) at different time intervals. The stopped reaction was centrifuged (16,000 × […], 10 min) to pellet the precipitated proteins. The stopped reaction mixture (200 μL) was added to 800 μL of 5% (w/v) 4-(N,N-dimethylamino)benzaldehyde (DMAB) in 9:1 acetonitrile:water to develop the colour. The absorption at 450 nm was measured with a Hitachi U-2001 UV–vis spectrophotometer, with the amount of residual substrate in the reaction was determined by comparison with a standard curve.
The inhibitory effect of steroids on the rate of acetylation of arylamines by mouse Nat2 was measured by using the colorimetric DMAB assay as described in Section 2. Test compounds (50 μM, 2% DMSO unless specified) were pre-incubated with recombinant mouse Nat2 (3 ng) and PABA (75 μM) for 10 min at room temperature. AcCoA (400 μM) was added to start the reaction and the reaction mixture was incubated at 37 °C. The total reaction volume was 100 μL. Reactions were stopped at various time intervals by the addition of 100 μL of 20% (w/v) TCA. The colour was developed and measured as described in Section 2. The linear initial rate of reaction was determined and the percentage inhibition was calculated relative to the control activity measured without the inhibitor. All measurements were performed in triplicate and are expressed as mean ± standard deviation. *2% (v/v) ethanol **5% (v/v) DMSO used to dissolve the compounds in the assay.

[2] = set-up: method as in PMID 11502892; conditions: after a soy-based meal; cited from earlier work
mouse Nat2 [3] = molecular target: T1, mouse Nat2; assay: Substrate specific activity of mouse Nat2 (rate of CoA production, DTNB); assay type: biochemical; conditions: substrate 500 μM, AcCoA 400 μM, 25 °C, pH 8.0
Procedure: The rate of production of the free thiol Coenzyme A by NAT, in the presence of a range of known NAT acetyl-acceptor substrates, was determined by using Ellman's reagent, 5,5′-dithio-bis(2-nitrobenzoic acid) (DTNB) as previously described [[2,26]]. The substrate (500 μM) and purified recombinant NAT were pre-incubated (25 °C, 5 min) in 96-well flat-bottomed polystyrene plates (Costar®, Corning Inc.) in 20 mM Tris–HCl (pH 8.0). AcCoA (400 μM) was added to start the reaction in a final volume of 100 μL. The reaction was quenched with the addition of 25 μL of guanidine–HCl solution (6.4 M guanidine–HCl, 0.1 M Tris–HCl (pH 7.3)) containing 5 mM DTNB. The absorbance at 405 nm was measured on a plate-reader (Sunrise, Tecan). Assay buffer was used to replace substrate, AcCoA or NAT for control reactions. The amount of CoA produced in the assay was determined in comparison with a CoA standard curve.
Substrate abbreviations used for the substrate selectivity assays are as follows: aniline (ANL), 4-aminobenzoic acid (PABA), 4-aminosalicylic acid (4AS), 5-aminosalicylic acid (5AS), 4-chloroaniline (CLA), 4-bromoaniline (BRA), 4-iodoaniline (IOA), 4-methoxyanline (ANS), 4-ethoxyaniline (EOA), 4-butoxyanline (BOA), 4-hexyloxyaniline (HOA), 4-phenoxyaniline (POA), 4-aminoveratrole (4AV), 2-aminofluorene (2AF), 4-aminobenzoyl-L-glutamate (pABGlu), sulfamethazine (SMZ), procainamide (PRO), 4-aminopyridine (APY), isoniazid (INH), hydralazine (HDZ) and phenylhydrazine (PHZ). The stock concentration of substrate was 100 mM dissolved in DMSO, such that the final concentration of DMSO was less than 5% in the assays. DMSO only controls were carried out.
Fig. 2 Comparison of the substrate specific activity profiles of mouse Nat2, human NAT1 and human NAT2. The substrate specific activity profiles for mouse Nat2 (grey bars), human NAT1 (cross-hatched bars) and human NAT2 (black bars) are shown. The activity of mouse Nat2 was determined by measuring the rate of CoA production, as described in Section 2. Purified mouse Nat2 (0.125 μg) was incubated with arylamine substrate (each at 500 μM) and AcCoA (400 μM) in assay buffer (20 mM Tris–HCl (pH 8.0)) containing 0.5% (v/v) DMSO at 25 °C. The specific activities were determined from the linear initial rates of reaction. All measurements were performed in triplicate and are expressed as mean ± standard deviation relative to the most rapidly acetylated substrate. The human NAT1 and NAT2 data are taken from. The abbreviations are defined in Section 2.
The rate of hydrolysis of AcCoA was measured in the presence of a wide range of acetyl-acceptors (known NAT substrates, at 500 μM) and mouse Nat2 as described in the Methods section and Supplementary Fig. 1. The assays were performed in the presence of 5% (v/v) DMSO.

mouse Nat2 [4] = molecular target: T1, mouse Nat2; assay: 1D 1H NMR titration of mouse Nat2 with ligand; assay type: binding; conditions: 8 equivalents of bisphenol A; 20 °C, pH 7.0
Procedure: 1D ^1H NMR spectra for hamster and mouse Nat2 were collected at 20 °C using a jump-return sequence. This sequence enabled the observation of H^N peaks which exchange to a significant extent with H2O. Spectra were collected using a 600 MHz spectrometer using a sweep width of 12,500 Hz. Unlabelled hamster and mouse Nat2 were used at a concentration of 10 mg/mL in the buffer described above. The titration of mouse Nat2 with bisphenol A was carried out by stepwise addition of small volumes (5–20 μL) of a concentrated solution of bisphenol A (100 mM in deuterated DMSO) to the mouse Nat2 solution in the NMR tube. The highest concentration of DMSO in the sample used was 2.8%. DMSO alone had no effect on the NMR spectrum of mouse Nat2 using concentrations up to 5%.

[5] = cited from earlier work
[6] = xenobiotic oestrogens, recombinant mouse Nat2 3 ng, PABA 75 μM, AcCoA 400 μM, 37 °C, read-out: IC50 mNAT2
[7] = steroidogenic compounds, inhibitor 1–500 μM, recombinant mouse Nat2 3 ng, PABA 75 μM, AcCoA 400 μM, 37 °C, read-out: IC50

O=c1c(-c2ccc(O)cc2)coc2cc(O)cc(O)c12 [Geni stein, genistein]
IC50 (mouse Nat2 [1]): 45 ± 5 µM | Circulating plasma concentration [2]: ≤ 18 µM

C[C@H]1CCC[C@H](O)CCC/C=C/c2cc(O)cc(O)c2C(=O)O1 [Alpha-Zearalenol]
IC50 (mouse Nat2 [1]; [6]): 70 ± 10 µM

NNC(=O)c1ccncc1 [INH, isoniazid]
Specific activity of mouse Nat2 with substrate (mouse Nat2 [3]): low specific activities

Nc1ccc(O)c(C(=O)O)c1 [5AS, 5-aminosalicylic acid]
Specific activity of mouse Nat2 with substrate (mouse Nat2 [3]): high specific activities

C[C@]12CCC(=O)C=C1CC[C@@H]1[C@@H]2CC[C@]2(C)C(=O)CC[C@@H]12 [Androsteinedione]
IC50 (mouse Nat2 [1]; [7]): > 500 µM

Nc1ccc2c(c1)Cc1ccccc1-2 [2AF, 2-aminofluorene]
Specific activity of mouse Nat2 with substrate (mouse Nat2 [3]): high specific activities | Specific activity of mouse Nat2 with substrate (mouse Nat2 [3]; listed as 2-aminofluorene): readily acetylates

CC(C)(c1ccc(O)cc1)c1ccc(O)cc1 [Bisphenol A]
Change in chemical shift of histidine peak 1 (downfield) (mouse Nat2 [4]): ~0.12 ppm | Change in chemical shift of histidine peak 4 (upfield) (mouse Nat2 [4]): ~0.08 ppm | IC50 (mouse Nat2 [1]; [6]): 290 ± 10 µM

CC(=O)[C@H]1CC[C@H]2[C@@H]3CC=C4C[C@@H](O)CC[C@]4(C)[C@H]3CC[C@]12C [Pregnelone]
IC50 (mouse Nat2 [1]; [7]): > 100 µM

Cc1cc(C)nc(NS(=O)(=O)c2ccc(N)cc2)n1 [sulfamethazine]
Specific activity of mouse Nat2 with substrate (mouse Nat2 [3]): low specific activities

NNc1nncc2ccccc12 [HDZ, hydralazine]
Specific activity of mouse Nat2 with substrate (mouse Nat2 [3]): low specific activities

C[C@]12CC[C@H]3[C@@H](CCC4=CC(=O)CC[C@@]43C)[C@@H]1CC[C@@H]2O [Testosterone]
IC50 (mouse Nat2 [1]; [7]): > 500 µM

C[C@H]1CCCC(=O)CCC/C=C/c2cc(O)cc(O)c2C(=O)O1 [Zearalenone]
IC50 (mouse Nat2 [1]): 220 ± 10 µM

C[C@]12CC[C@@H]3c4ccc(O)cc4CC[C@H]3[C@@H]1CC[C@@H]2O [17-Hydroxy-β-estradiol]
IC50 (mouse Nat2 [1]; [7]): 55 ± 5 µM

Nc1ccc(C(=O)O)c(O)c1 [4AS, 4-aminosalicylic acid]
Specific activity of mouse Nat2 with substrate (mouse Nat2 [3]): high specific activities

C[C@]12CC[C@@H]3c4ccc(O)cc4CC[C@H]3[C@@H]1CCC2=O [Estrone]
IC50 (mouse Nat2 [1]; [7]): 370 ± 10 µM

Nc1ccc(C(=O)O)cc1 [PABA, 4-aminobenzoic acid]
Specific activity of mouse Nat2 with substrate (mouse Nat2 [3]): high specific activities

CCN(CC)CCNC(=O)c1ccc(N)cc1 [procainamide]
Specific activity of mouse Nat2 with substrate (mouse Nat2 [3]): low specific activities

CC/C(=C(\c1ccccc1)c1ccc(OCCN(C)C)cc1)c1ccccc1 [Tamoxifen]
Intratumoral level [5]: micromolar concentrations

NNc1ccccc1 [PHZ, phenylhydrazine]
Specific activity of mouse Nat2 with substrate (mouse Nat2 [3]): low specific activities

CC(=O)[C@@]1(O)CC[C@H]2[C@@H]3CCC4=CC(=O)CC[C@]4(C)[C@H]3CC[C@@]21C [17-Hydroxy-progesterone]
IC50 (mouse Nat2 [1]; [7]): > 500 µM

C[C@H]1CCC[C@@H](O)CCC/C=C/c2cc(O)cc(O)c2C(=O)O1 [Beta-Zearalenol]
IC50 (mouse Nat2 [1]; [6]): 450 ± 10 µM
